# In DBAASP:
# Experiments:
# Test in all cases: ≥ marks a high value that may be exact or a test limit, other limits are often not marked, values filed in µg/mL are converted to µM
# [1] = tested on: Bacillus subtilis ATCC 6633
# [2] = tested on: Staphylococcus aureus FDA 209P
# [3] = tested on: Bacillus anthracis Sterne 34F2
# Escherichia coli K91BK = tested on: Escherichia coli K91BK
# [4] = tested on: Bacillus subtilis var. niger ATCC 9372
# [5] = tested on: Candida albicans F7-39/IDE99
# [6] = tested on: Staphylococcus aureus ATCC 43300
# Escherichia coli B = tested on: Escherichia coli B
# [7] = tested on: Staphylococcus epidermidis
# Bacillus subtilis 168 = tested on: Bacillus subtilis 168
# [8] = tested on: Micrococcus luteus CCM 144
# Staphylococcus aureus = tested on: Staphylococcus aureus
# Pseudomonas aeruginosa = tested on: Pseudomonas aeruginosa
# [9] = tested on: Pseudomonas aeruginosa ATCC 27853
# [10] = tested on: Salmonella enterica subsp. enterica serovar Typhimurium ATCC 14028
# Bacillus megaterium Bm11 = tested on: Bacillus megaterium Bm11
# Escherichia coli = tested on: Escherichia coli
# Proteus mirabilis = tested on: Proteus mirabilis
# Escherichia coli ML-35 = tested on: Escherichia coli ML-35
# [11] = tested on: Staphylococcus aureus ATCC 25923
# [12] = tested on: Micrococcus luteus ATCC 9341
# Salmonella typhimurium = tested on: Salmonella typhimurium
# Klebsiella pneumoniae = tested on: Klebsiella pneumoniae
# [13] = tested on: Escherichia coli DH5alpha
# Streptococcus mutans = tested on: Streptococcus mutans
# [14] = tested on: Escherichia coli ATCC 25922
# [15] = tested on: Micrococcus luteus ATCC 10240
# [16] = tested on: Shigella dysenteriae ATCC 9752
# [17] = tested on: Staphylococcus aureus ATCC 6538P
# [18] = tested on: Staphylococcus epidermidis ATCC 12228
# [19] = tested on: Klebsiella pneumoniae ATCC 10031
# [20] = tested on: Burkholderia thailandensis
smiles,measurement,setting,value
CC[C@H](C)[C@H](NC(=O)[C@H](C)NC(=O)CNC(=O)[C@H](Cc1ccccc1)NC(=O)[C@H](CC(C)C)NC(=O)[C@H](CC(C)C)NC(=O)[C@@H]1CCCN1C(=O)[C@H](CC(C)C)NC(=O)[C@@H](N)Cc1ccccc1)C(=O)N[C@@H](CO)C(=O)N[C@@H](Cc1cnc[nH]1)C(=O)N[C@@H](CC(C)C)C(=O)N[C@@H](CC(C)C)C(N)=O [FLPLLFGAISHLL],MIC,[1],≥ 44.4 µM
same,MIC,[2],30.7 µM
CC[C@H](C)[C@H](NC(=O)CNC(C)=O)C(=O)NCC(=O)N[C@@H](CCCCN)C(=O)N[C@@H](Cc1cnc[nH]1)C(=O)N[C@H](C(=O)NCC(=O)N[C@@H](CCCCN)C(=O)N[C@@H](C)C(=O)N[C@@H](CC(C)C)C(=O)N[C@@H](CCCCN)C(=O)NCC(=O)N[C@@H](CC(C)C)C(=O)N[C@@H](CCCCN)C(=O)NCC(=O)N[C@@H](CC(C)C)C(=O)N[C@@H](CC(C)C)C(=O)N[C@@H](CCCCN)C(=O)NCC(=O)N[C@@H](CC(C)C)C(=O)NCC(=O)N[C@@H](CCC(=O)O)C(=O)N[C@@H](CO)C(N)=O)C(C)C [GIGKHVGKALKGLKGLLKGLGES],MIC,[3],≥ 100 µM
same,MIC,Escherichia coli K91BK,≥ 100 µM
same,MIC,[4],≥ 100 µM
CC[C@H](C)[C@H](NC(=O)CN)C(=O)N[C@@H](CCSC)C(=O)N[C@@H](CO)C(=O)N[C@@H](CO)C(=O)N[C@@H](CC(C)C)C(=O)N[C@@H](CCSC)C(=O)N[C@@H](CCCCN)C(=O)N[C@@H](CCCCN)C(=O)N[C@@H](CC(C)C)C(=O)N[C@@H](CCCCN)C(=O)N[C@@H](C)C(=O)N[C@@H](Cc1cnc[nH]1)C(=O)N[C@H](C(=O)N[C@@H](C)C(=O)N[C@@H](CCCCN)C(N)=O)[C@@H](C)CC [GIMSSLMKKLKAHIAK],MIC,[5],23 µM
same,MIC,[6],> 100 µM
same,MIC,Escherichia coli B,30 µM
same,MIC,[7],16 µM
same,MIC,Bacillus subtilis 168,7 µM
same,MIC,[8],3 µM
same,MIC,Staphylococcus aureus,> 100 µM
same,MIC,Pseudomonas aeruginosa,47 µM
same,MIC,[9],26 µM
CC[C@H](C)[C@H](NC(=O)[C@H](CCCCN)NC(=O)[C@H](CCCCN)NC(=O)[C@H](Cc1ccccc1)NC(=O)[C@H](CCCCN)NC(=O)[C@H](CCC(=O)O)NC(=O)CNC(=O)[C@@H](NC(=O)[C@H](CCCCN)NC(=O)[C@H](CCCCN)NC(=O)[C@H](CC(C)C)NC(=O)[C@H](Cc1ccccc1)NC(=O)[C@H](CC(=O)O)NC(=O)[C@H](CCCNC(=N)N)NC(=O)[C@H](CC(C)C)NC(=O)[C@H](CCCNC(=N)N)NC(=O)[C@H](CCCNC(=N)N)NC(=O)[C@H](CC(C)C)NC(=O)[C@H](CC(C)C)NC(=O)CN)[C@@H](C)CC)C(=O)NCC(=O)N[C@H](C=O)Cc1ccc(O)cc1 [GLLRRLRDFLKKIGEKFKKIGY],MIC,[10],4 µM
same,MIC,Bacillus megaterium Bm11,1 µM
same,MIC,Escherichia coli,4 µM
same,MIC,Proteus mirabilis,≥ 32 µM
same,MIC,Escherichia coli ML-35,4 µM
same,MIC,[11],4 µM
same,MIC,Staphylococcus aureus,2 µM
CC[C@H](C)[C@H](N)C(=O)N[C@@H](CC(C)C)C(=O)N[C@@H](C)C(=O)N[C@@H](Cc1c[nH]c2ccccc12)C(=O)N[C@@H](CCCCN)C(=O)N[C@@H](Cc1c[nH]c2ccccc12)C(=O)N1CCC[C@H]1C(=O)N[C@@H](Cc1c[nH]c2ccccc12)C(=O)N[C@@H](Cc1c[nH]c2ccccc12)C(=O)N1CCC[C@H]1C(=O)N[C@@H](Cc1c[nH]c2ccccc12)C(=O)N[C@@H](CCCN=C(N)N)C(=O)N[C@@H](CCCN=C(N)N)C(N)=O [ILAWKWPWWPWRR],MIC,[12],0.4 µM
same,MIC,Salmonella typhimurium,≥ 50 µM
same,MIC,Klebsiella pneumoniae,35 µM
same,MIC,[13],≥ 35 µM
same,MIC,Pseudomonas aeruginosa,50 µM
CC[C@H](C)[C@H](NC(=O)[C@H](CCC(N)=O)NC(=O)[C@H](CCCCN)NC(=O)[C@H](Cc1ccccc1)NC(=O)[C@@H](NC(=O)[C@H](CCC(N)=O)NC(=O)[C@H](CC(C)C)NC(=O)[C@H](CC(C)C)NC(=O)[C@@H](N)CCCCN)[C@@H](C)O)C(=O)N[C@@H](Cc1ccccc1)C(=O)N[C@@H](CCCN=C(N)N)C(=O)O [KLLQTFKQIFR],MIC,Streptococcus mutans,≥ 176 µM
CC(C)C[C@H](NC(=O)[C@H](CC(C)C)NC(=O)[C@H](CCCCN)NC(=O)[C@H](CC(C)C)NC(=O)[C@H](CC(C)C)NC(=O)[C@H](Cc1c[nH]c2ccccc12)NC(=O)[C@H](CCCCN)NC(=O)[C@H](CC(C)C)NC(=O)[C@H](CC(C)C)NC(=O)[C@H](CCCCN)NC(=O)[C@@H](N)CC(C)C)C(N)=O [LKLLKWLLKLL],MIC,[10],> 145 µM
same,MIC,[14],36.2 µM
same,MIC,[15],2.25 µM
same,MIC,[16],9.05 µM
same,MIC,[17],2.25 µM
same,MIC,[1],1.16 µM
same,MIC,[18],2.25 µM
same,MIC,[19],≥ 36.2 µM
same,MIC,[9],> 145 µM
CC(C)C[C@H](NC(=O)[C@H](Cc1ccccc1)NC(=O)[C@H](Cc1cnc[nH]1)NC(=O)[C@H](Cc1ccc(O)cc1)NC(=O)[C@@H](N)CC(C)C)C(=O)N[C@@H](Cc1cnc[nH]1)C(=O)N[C@@H](Cc1c[nH]c2ccccc12)C(=O)N[C@@H](Cc1ccccc1)C(=O)N[C@@H](CCC(N)=O)C(=O)N[C@@H](CCCN=C(N)N)C(=O)N[C@@H](Cc1ccccc1)C(N)=O [LYHFLHWFQRF],MIC,Streptococcus mutans,≥ 78.4 µM
CC[C@H](C)[C@H](NC(=O)CNC(=O)[C@H](C)NC(=O)[C@H](Cc1c[nH]c2ccccc12)NC(=O)[C@H](CC(C)C)NC(=O)[C@@H](N)CC(N)=O)C(=O)N[C@@H](CC(C)C)C(=O)N[C@@H](CCCCN)C(=O)N[C@@H](Cc1cnc[nH]1)C(=O)N[C@H](C(=O)N[C@H](C(=O)N[C@@H](CCCCN)C(N)=O)[C@@H](C)CC)[C@@H](C)CC [NLWAGILKHIIK],MIC,[5],10.8 µM
same,MIC,Escherichia coli B,12.5 µM
same,MIC,Bacillus subtilis 168,4.5 µM
same,MIC,[8],2.5 µM
same,MIC,Staphylococcus aureus,36.7 µM
same,MIC,Pseudomonas aeruginosa,> 100 µM
CC[C@H](C)[C@H](NC(=O)[C@H](CCCCN)NC(=O)[C@H](CCCN=C(N)N)NC(=O)CNC(=O)[C@H](CC(C)C)NC(=O)[C@H](CCCN=C(N)N)NC(=O)[C@H](CCCN=C(N)N)NC(=O)[C@H](CC(C)C)NC(=O)CNC(=O)[C@H](CCCN=C(N)N)NC(C)=O)C(=O)N[C@@H](C)C(=O)N[C@@H](Cc1cnc[nH]1)C(=O)NCC(=O)N[C@H](C(=O)N[C@@H](CCCCN)C(=O)N[C@@H](CCCCN)C(=O)NCC(=O)NCC(=O)N1CCC[C@H]1C(=O)N[C@H](C(=O)N[C@H](C(=O)N[C@@H](CC(C)C)C(=O)N[C@@H](CCCN=C(N)N)C(=O)N[C@H](C(=O)N[C@H](C(=O)N[C@@H](CCCN=C(N)N)C(=O)N[C@H](C(=O)N[C@@H](C)C(=O)NCC(N)=O)[C@@H](C)CC)[C@@H](C)CC)[C@@H](C)CC)C(C)C)[C@@H](C)O)C(C)C [RGLRRLGRKIAHGVKKGGPTVLRIIRIAG],MIC,[20],≥ 100 µM
same,MIC,[3],≥ 70.2 µM
same,MIC,Escherichia coli K91BK,≥ 100 µM
same,MIC,[4],7.87 µM
CC[C@H](C)[C@H](NC(=O)[C@H](CCCCN)NC(=O)[C@H](CCCN=C(N)N)NC(=O)[C@H](CCCCN)NC(=O)[C@H](CC(C)C)NC(=O)[C@H](CCCN=C(N)N)NC(=O)[C@H](CCCN=C(N)N)NC(=O)[C@H](CC(C)C)NC(=O)[C@H](CCCCN)NC(=O)[C@H](CCCN=C(N)N)NC(C)=O)C(=O)N[C@@H](C)C(=O)N[C@@H](Cc1cnc[nH]1)C(=O)N[C@@H](CCCCN)C(=O)N[C@H](C(=O)N[C@@H](CCCCN)C(=O)N[C@@H](CCCCN)C(=O)N[C@@H](Cc1ccc(O)cc1)C(N)=O)C(C)C [RKLRRLKRKIAHKVKKY],MIC,[20],≥ 100 µM
same,MIC,[3],≥ 100 µM
same,MIC,Escherichia coli K91BK,≥ 100 µM
same,MIC,[4],≥ 57.4 µM
